# Experimental data: patent publication US8192962B2, “Processes for detecting toxic substances” (Daikin Industries, Ltd., priority 2001, dated 2012)
# Tested on: Energy system protein genes
# Assay: DNA chip mRNA expression in yeast, energy system protein genes (Table 4)
# Format: cell-based, Saccharomyces cerevisiae S288C
# Method in brief: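 First, S288C yeast grown in YPD at 25° C. are dosed in log phase with one toxicant (growth-inhibiting, not lethal) for 2 h. Next, total RNA is extracted and poly(A) mRNA isolated and reverse-transcribed with Cy3/Cy5-dUTP. Finally, whole-genome chip fluorescence is read relative to unexposed cells.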
smiles,measurement,setting,value
"[Cl][Pb][Cl] [(4), PbCl2]",The level of expressed mRNA in the presence of chemical substance/The level of expressed mRNA in the absence of chemical substance,yeast gene YJR048W,1.4
same,The level of expressed mRNA in the presence of chemical substance/The level of expressed mRNA in the absence of chemical substance,"yeast gene YJR121W, cells incubated two hours with the chemical substance",1.0
same,The level of expressed mRNA in the presence of chemical substance/The level of expressed mRNA in the absence of chemical substance,yeast gene YJR155W,2.5
same,The level of expressed mRNA in the presence of chemical substance/The level of expressed mRNA in the absence of chemical substance,"yeast gene YKL016C, cells incubated two hours with the chemical substance",1.7
same,The level of expressed mRNA in the presence of chemical substance/The level of expressed mRNA in the absence of chemical substance,"yeast gene YKL060C, cells incubated two hours with the chemical substance",1.0
same,The level of expressed mRNA in the presence of chemical substance/The level of expressed mRNA in the absence of chemical substance,"yeast gene YKL141W, cells incubated two hours with the chemical substance",1.7
same,The level of expressed mRNA in the presence of chemical substance/The level of expressed mRNA in the absence of chemical substance,"yeast gene YKL148C, cells incubated two hours with the chemical substance",0.7
same,The level of expressed mRNA in the presence of chemical substance/The level of expressed mRNA in the absence of chemical substance,"yeast gene YKR009C, cells incubated two hours with the chemical substance",0.9
same,The level of expressed mRNA in the presence of chemical substance/The level of expressed mRNA in the absence of chemical substance,"yeast gene YKR058W, cells incubated two hours with the chemical substance, 25° C., YPD medium",1.9
same,The level of expressed mRNA in the presence of chemical substance/The level of expressed mRNA in the absence of chemical substance,yeast gene YKR097W,3.3
same,The level of expressed mRNA in the presence of chemical substance/The level of expressed mRNA in the absence of chemical substance,"yeast gene YLL041C, cells incubated two hours with the chemical substance",1.0
same,The level of expressed mRNA in the presence of chemical substance/The level of expressed mRNA in the absence of chemical substance,"yeast gene YLR038C, cells incubated two hours with the chemical substance",2.1
same,The level of expressed mRNA in the presence of chemical substance/The level of expressed mRNA in the absence of chemical substance,"yeast gene YLR044C, cells incubated two hours with the chemical substance",0.9
same,The level of expressed mRNA in the presence of chemical substance/The level of expressed mRNA in the absence of chemical substance,"yeast gene YLR134W, cells incubated two hours with the chemical substance",0.8
same,The level of expressed mRNA in the presence of chemical substance/The level of expressed mRNA in the absence of chemical substance,"yeast gene YLR258W, cells incubated two hours with the chemical substance",3.5
same,The level of expressed mRNA in the presence of chemical substance/The level of expressed mRNA in the absence of chemical substance,"yeast gene YLR284C, cells incubated two hours with the chemical substance",1.9
same,The level of expressed mRNA in the presence of chemical substance/The level of expressed mRNA in the absence of chemical substance,"yeast gene YLR295C, cells incubated two hours with the chemical substance, 25° C., YPD medium",1.7
same,The level of expressed mRNA in the presence of chemical substance/The level of expressed mRNA in the absence of chemical substance,"yeast gene YLR304C, cells incubated two hours with the chemical substance",0.7
same,The level of expressed mRNA in the presence of chemical substance/The level of expressed mRNA in the absence of chemical substance,yeast gene YLR345W,1.2
same,The level of expressed mRNA in the presence of chemical substance/The level of expressed mRNA in the absence of chemical substance,"yeast gene YLR354C, cells incubated two hours with the chemical substance",1.5
same,The level of expressed mRNA in the presence of chemical substance/The level of expressed mRNA in the absence of chemical substance,"yeast gene YLR377C, cells incubated two hours with the chemical substance",1.2
same,The level of expressed mRNA in the presence of chemical substance/The level of expressed mRNA in the absence of chemical substance,"yeast gene YLR395C, cells incubated two hours with the chemical substance",1.9
same,The level of expressed mRNA in the presence of chemical substance/The level of expressed mRNA in the absence of chemical substance,yeast gene YML087C,2.5
same,The level of expressed mRNA in the presence of chemical substance/The level of expressed mRNA in the absence of chemical substance,"yeast gene YML120C, cells incubated two hours with the chemical substance",1.9
same,The level of expressed mRNA in the presence of chemical substance/The level of expressed mRNA in the absence of chemical substance,"yeast gene YML129C, cells incubated two hours with the chemical substance",1.2
same,The level of expressed mRNA in the presence of chemical substance/The level of expressed mRNA in the absence of chemical substance,"yeast gene YMR073C, cells incubated two hours with the chemical substance",1.5
same,The level of expressed mRNA in the presence of chemical substance/The level of expressed mRNA in the absence of chemical substance,yeast gene YMR118C,1.6
same,The level of expressed mRNA in the presence of chemical substance/The level of expressed mRNA in the absence of chemical substance,"yeast gene YMR205C, cells incubated two hours with the chemical substance",0.8
same,The level of expressed mRNA in the presence of chemical substance/The level of expressed mRNA in the absence of chemical substance,"yeast gene YMR261C, cells incubated two hours with the chemical substance",0.8
same,The level of expressed mRNA in the presence of chemical substance/The level of expressed mRNA in the absence of chemical substance,"yeast gene YMR267W, cells incubated two hours with the chemical substance, 25° C., YPD medium",0.9
same,The level of expressed mRNA in the presence of chemical substance/The level of expressed mRNA in the absence of chemical substance,"yeast gene YMR323W, cells incubated two hours with the chemical substance",1.1
same,The level of expressed mRNA in the presence of chemical substance/The level of expressed mRNA in the absence of chemical substance,yeast gene YNL071W,1.5
same,The level of expressed mRNA in the presence of chemical substance/The level of expressed mRNA in the absence of chemical substance,"yeast gene YNL202W, cells incubated two hours with the chemical substance",1.7
same,The level of expressed mRNA in the presence of chemical substance/The level of expressed mRNA in the absence of chemical substance,yeast gene YNL241C,1.0
same,The level of expressed mRNA in the presence of chemical substance/The level of expressed mRNA in the absence of chemical substance,yeast gene YNL331C,1.0
same,The level of expressed mRNA in the presence of chemical substance/The level of expressed mRNA in the absence of chemical substance,"yeast gene YOL086C, cells incubated two hours with the chemical substance",1.1
same,The level of expressed mRNA in the presence of chemical substance/The level of expressed mRNA in the absence of chemical substance,yeast gene YOL165C,0.9
same,The level of expressed mRNA in the presence of chemical substance/The level of expressed mRNA in the absence of chemical substance,"yeast gene YOR142W, cells incubated two hours with the chemical substance",1.0
same,The level of expressed mRNA in the presence of chemical substance/The level of expressed mRNA in the absence of chemical substance,"yeast gene YOR178C, cells incubated two hours with the chemical substance",2.3
same,The level of expressed mRNA in the presence of chemical substance/The level of expressed mRNA in the absence of chemical substance,"yeast gene YOR388C, cells incubated two hours with the chemical substance",4.7
same,The level of expressed mRNA in the presence of chemical substance/The level of expressed mRNA in the absence of chemical substance,"yeast gene YPL031C, cells incubated two hours with the chemical substance",0.8
same,The level of expressed mRNA in the presence of chemical substance/The level of expressed mRNA in the absence of chemical substance,"yeast gene YPL061W, cells incubated two hours with the chemical substance",1.3
same,The level of expressed mRNA in the presence of chemical substance/The level of expressed mRNA in the absence of chemical substance,yeast gene YPL088W,2.5
same,The level of expressed mRNA in the presence of chemical substance/The level of expressed mRNA in the absence of chemical substance,yeast gene YPL171C,2.2
same,The level of expressed mRNA in the presence of chemical substance/The level of expressed mRNA in the absence of chemical substance,yeast gene YPL240C,0.9
same,The level of expressed mRNA in the presence of chemical substance/The level of expressed mRNA in the absence of chemical substance,"yeast gene YPL262W, cells incubated two hours with the chemical substance",1.2
same,The level of expressed mRNA in the presence of chemical substance/The level of expressed mRNA in the absence of chemical substance,"yeast gene YPL275W, cells incubated two hours with the chemical substance",5.1
same,The level of expressed mRNA in the presence of chemical substance/The level of expressed mRNA in the absence of chemical substance,"yeast gene YPL276W, cells incubated two hours with the chemical substance",3.0
same,The level of expressed mRNA in the presence of chemical substance/The level of expressed mRNA in the absence of chemical substance,"yeast gene YPR048W, cells incubated two hours with the chemical substance",1.1
same,The level of expressed mRNA in the presence of chemical substance/The level of expressed mRNA in the absence of chemical substance,"yeast gene YPR184W, cells incubated two hours with the chemical substance",2.2
